The text below walks through data of article PMC11946679 (Toxics, 2025).

The subject of data set [1] is human peripheral blood lymphocytes. Type of data set: cell-based. The settings on record: alone, 3 h, IRI 9.0 mg/L, bleomycin 15 mg/L; for Total No. of Cells in Apoptosis / Total No. of Nonviable Cells: scored along with 4000 binucleated cells. From the text:
While screening microscope preparations to determine trends in the levels of the main CBMN assay descriptors, nonviable cells were also simultaneously counted on the same slides. Their discrimination was based on the specific morphological features typical for apoptosis or necrosis. It is well known that the biological significance of these phenomena differs deeply, and that the determination of the predominant type of cell death represents a very important issue in each experimental setting.
For each experimental group, we also calculated the ratio between the recorded number of nonviable cells and the cells in apoptosis (Table 5). According to reference, a ratio ≤ 1 means a prevalence of apoptotic events that induce cell death, while a ratio > 1 indicates the acute toxicity of the tested substance that promotes necrosis.

For data set [2] the test system is unchanged. In words: CBMN cytome assay: lymphocyte proliferation (M1-M4, CBPI, RI). Type of data set: cell-based. The settings on record: alone, 3 h; IRI 9.0 mg/L, bleomycin 15 mg/L. The procedure:
On the same slides, parameters of cell proliferation and cytotoxicity were also evaluated, in line with the OECD protocol.

For data set [3] the test system is unchanged. In words: CBMN cytome assay: micronuclei, nuclear buds, nucleoplasmic bridges. The following applies: alone, 3 h; IRI 9.0 mg/L, bleomycin 15 mg/L.
Experimental: The CBMN assay was performed in line with standard protocols [8, 23].
To collect the blood sample, lithium heparin-coated tubes were used (BD vacutainer® with LH 170 I.U., Becton Dickinson: BD-Plymouth PL6 78P, UK).
There were 15 experimental groups altogether. The same experimental design was applied in two independent trials, each of which had two replicate cultures per experimental group; therefore, four replicate cultures for every single experimental group were established.
To induce cell division prior to exposure to the test chemicals, lymphocytes were stimulated with the mitogen phytohemagglutinin (PHA). Cultures were kept in a humidified atmosphere of 5% CO2 at 37 °C.
They started 41 h after PHA stimulation and lasted for 3 h at 37 °C.
Upon completion of exposure, lymphocyte cultures were centrifuged at 100× g. […] This procedure was timed for the 44th hour of lymphocyte cultivation, which represents a critical point for adding of cytoB to hinder cytokinesis and obtain binucleated cells. All treated and control cultures were further maintained at 37 °C until the end of the 72nd hour of cultivation, according to the above-mentioned standard protocols.
The first step in the preparation of microscopic slides was harvesting of cells by centrifugation (100× g), followed by treatment with 0.075 mol/L potassium chloride and succeeded by centrifugation. The sediments of cells were repeatedly fixed with methanol/acetic acid (3:1 v/v) followed by centrifugation. The final lymphocyte suspension was pipetted onto clean microscope slides. For staining, 5% aqueous solution of Giemsa dye was used. Slides were screened using a light microscope at 1000× magnification. For morphological discrimination of micronuclei (MNi), nuclear buds (NBs), nucleoplasmic bridges (NPBs) and cells in apoptosis or necrosis, the criteria by Fenech et al. [25] and Fenech [23] were applied. To determine their frequencies, per experimental point, a total of 4 × 1000 binucleated (BN) cells were scored.
This value was first used to estimate the number of MNi required to reach a decrease and an increase considered significant at a 5% significance level.

Marks after values point to notes of the source that are not given here.

`CCc1c2c(nc3ccc(OC(=O)N4CCC(N5CCCCC5)CC4)cc13)-c1cc3c(c(=O)n1C2)COC(=O)[C@]3(O)CC` [Irinotecan, reference compound]: in data set [1], the “Total No. of Cells in Apoptosis” value was 42 and the “Total No. of Nonviable Cells” value came to 76. For the same molecule, in data set [2], the “% of Cells with 1 to 4 Nuclei M1” value is on record as 43.1 ^↑ %, the “% of Cells with 1 to 4 Nuclei M2” value was 52.9 ^↓ %, the “% of Cells with 1 to 4 Nuclei M3” value was 2.0 ^↓ % and the “% of Cells with 1 to 4 Nuclei M4” value is reported as 2.0 ^↓ %. This molecule returned a CBPI in data set [2] of 1.609.
As to Bleomycin [reference compound], in data set [1], the “Ratio (nonviable cells and cells in apoptosis)” value was found to be 0.6; the “Total No. of Cells in Apoptosis” value worked out at 59; the “Total No. of Nonviable Cells” value is 100. In data set [2], the “% of Cells with 1 to 4 Nuclei M1” value is 45.5 ^↑ %, the “% of Cells with 1 to 4 Nuclei M2” value is listed as 46.1 ^↓ %, the “% of Cells with 1 to 4 Nuclei M3” value was determined as 4.2% and the “% of Cells with 1 to 4 Nuclei M4” value was 4.2 ^↓ %. Also, in data set [2], the CBPI is recorded as 1.629 and the “Replication Index (%)” value was 64.0%. Further, in data set [3], the “Distribution of BNMN Cells with 1 MN” value is reported as 65 *; the “Distribution of BNMN Cells with 2 MN” value is reported as 11 iri, g10+iri; the “Distribution of BNMN Cells with 3 MN” value was found to be 2; the “Distribution of BNMN Cells with 4 MN” value was 1. For the same molecule, in data set [3], the “Distribution of BNNB Cells with 1 NB” value was 49 *; the “Distribution of BNNB Cells with 2 NB” value was 4 c,p1,p5,p10,g1, g5,g10, p1+iri, p5+iri, p10+iri, g5+iri, g10+iri; the “Distribution of BNNPB Cells with 1 NPB” value was 7 c,p1,p5,p10,g1, g5,g10, p1+iri, p5+iri, p10+iri, g1+iri, g5+iri, g10+iri; the “Distribution of BNNPB Cells with 2 NPB” value was determined as 0. For the same molecule, in data set [3], the “Micronuclei (MNi) Mean (BNMN)1000 ± SD” value was 19.75 ± 3.77, the “Micronuclei (MNi) Mean (MNi)1000 ± SD” value amounted to 24.25 ± 6.24, the “Micronuclei (MNi) Total (BNMN)4000” value is recorded as 79 * and the “Micronuclei (MNi) Total (MNi)4000” value is on record as 97 *. For the same molecule, in data set [3], the “Nuclear Buds (NBs) Mean (BNNB)1000 ± SD” value was 13.25 ± 0.96, the “Nuclear Buds (NBs) Mean (NBs)1000 ± SD” value was 14.25 ± 0.50, the “Nuclear Buds (NBs) Total (BNNB)4000” value is given as 53 * and the “Nuclear Buds (NBs) Total (NBs)4000” value is 57 *. In data set [3], the “Nucleoplasmic Bridges (NPBs) Mean (BNNPB)1000 ± SD” value is given as 1.75 ± 1.26 c,p1,p5,p10, g1,g5,g10, p1+iri, p5+iri, p10+iri, g1+iri, g5+iri, g10+iri; the “Nucleoplasmic Bridges (NPBs) Mean (NPBs)1000 ± SD” value is recorded as 1.75 ± 1.26 c,p1,p5,p10, g1,g5,g10, p1+iri, p5+iri, p10+iri, g1+iri, g5+iri, g10+iri; the “Nucleoplasmic Bridges (NPBs) Total (BNNPB)4000” value was 7 c,p1,p5, p10,g1,g5,g10,p1+iri,p5+iri, p10+iri, g1+iri, g5+iri, g10+iri; the “Nucleoplasmic Bridges (NPBs) Total (NPBs)4000” value is on record as 7 c,p1,p5,p10,g1,g5,g10,p1+iri, p5+iri, p10+iri, g1+iri, g5+iri, g10+iri.
